From PubChem BioAssay (NCI) come the findings set out here.

Structures are written as SMILES.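 Step 1: Grow cells in 96-well plates. Step 2: Expose to compound for 48 hours at 5 concentrations. Step 3: Interpolate endpoints linearly; if unreached, use highest concentration. GI50 is the concentration that inhibits growth by half. The concentration for full growth arrest is given as TGI.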

Among the test systems are XF 498 CNS; HOP-18 NSCLC; RXF-631 renal.
What all share (assay): DTP human tumour cell line panel, 48 h

Take `Nc1ccc2ncc(Nc3ccc(F)cc3)nc2c1`: the TGI in the assay with XF 498 CNS was above 100 µM.
Turning to `CC(OC1CC(=O)CC2C(=O)C=CC(=O)C12)c1ccccc1` (stereo not drawn), the TGI was 29.4 µM in the assay with XF 498 CNS and 32.2 µM in the assay with HOP-18 NSCLC.
As for `COc1ccc(OC)c(/C=C/C(=O)C(C)(C)C)c1`, the TGI with HOP-18 NSCLC worked out at 38.9 µM; in the assay with RXF-631 renal, 85.1 µM.
Take `CCCCCCCCCCCCC/C=C1\C[C@H](O)COC1=O`: the TGI was 30.5 µM in the assay on XF 498 CNS and 31.6 µM in the assay with HOP-18 NSCLC.
As for `Fc1ccc2c(c1)SC1Oc3ccccc3-c3c1c-2nn3-c1ccccc1` (stereo not drawn), the TGI in the assay on XF 498 CNS, with HOP-18 NSCLC and with RXF-631 renal was above 100 µM in each case.
Regarding `CCOC(=O)C1(Br)C(c2ccccc2)NC(=O)N(C2OC(COC(=O)c3ccccc3)C(OC(=O)c3ccccc3)C2OC(=O)c2ccccc2)C1(C)Br` (stereo not drawn), the TGI with HOP-18 NSCLC is above 100 µM; in the assay on RXF-631 renal, 50 µM.
Consider `CN/C=C(/c1ccc(OC)cc1)C(O)c1ccc(OC)c(OC)c1` (stereo not drawn), for which the TGI with XF 498 CNS, in the assay with HOP-18 NSCLC and with RXF-631 renal was above 100 µM in each case.
Consider `COc1cc2c(cc1OC)C(=O)Cc1ccc3c(c1CNCC2)OCO3`, for which the TGI in the assay with XF 498 CNS and in the assay with HOP-18 NSCLC was above 100 µM throughout.
On to `O=S(=O)(O)c1cc(N=Nc2cc(S(=O)(=O)O)c3ccccc3c2O)ccc1/C=C/c1ccc(N=Nc2cc(S(=O)(=O)O)c3ccccc3c2O)cc1S(=O)(=O)O`, for which, in the assay with XF 498 CNS, the GI50 was above 1000 µM and the TGI was above 1000 µM.
Turning to `COc1ccc([C@@H]2CC(=O)NCCCNCCCCNCCCN2)cc1`, the TGI in the assay on XF 498 CNS and in the assay with HOP-18 NSCLC was above 100 µM each time.
With `Nc1ccc(C(=O)NN2C(=O)C(Cl)C2c2cc(Br)cc(Br)c2O)cc1` (stereo not drawn), the TGI in the assay on XF 498 CNS was above 100 µM; with HOP-18 NSCLC it was 38.2 µM.
`O=C(CSc1nnc(Cc2ccccc2)o1)Nc1ccccc1Cl` returned a total growth inhibition concentration (TGI) in the assay on HOP-18 NSCLC above 100 µM.
For the molecule `Cc1nc2nn(Cc3ccccc3)cc2c(=O)o1`, the TGI with XF 498 CNS and in the assay on RXF-631 renal was above 100 µM throughout.
Regarding `O=[N+]([O-])c1cc2c(cc1O)[nH]c1cccc([N+](=O)[O-])c12`, the TGI with XF 498 CNS and in the assay on HOP-18 NSCLC was above 100 µM in each case.

By TGI is commonly meant the concentration giving total growth inhibition. A higher TGI goes with lower sensitivity of the cells. Broadly, the GI50 is the concentration that inhibits growth by half.
